# Experimental data from PubChem BioAssay AID2060884 (Molecular Pharmacology Branch, DTP, NCI, 2025).
# System: NCI-H929 complex spheroids, viability % test/control
# Assay: Anticancer human tumor NCI-H929 cell line growth inhibition [RAS];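 note: compound exposure lasted seven days before viability was read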;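 for viability, T/C: 100% = DMSO vehicle control viability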
# Details: for IC50: curve of first compound; for viability, T/C: stronger effect = lower value
# Method in brief: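 Tumour cells grown as complex spheroids with HUVEC endothelial cells and mesenchymal stem cells, treated with RAS pathway inhibitor combinations. Each agent spans half-log steps from near clinical Cmax, or 10 microM where Cmax is unknown.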
compound,measurement,setting,value
CC(C)n1nc(-c2ccc3oc(N)nc3c2)c2c(N)ncnc21 + CCn1c(-c2cccnc2C(C)OC)c2c3cc(ccc31)N1CCOC(CC(NC(=O)C(C(C)C)N(C)C(=O)C3(F)CCN(C(=O)C#CC(C)(C)N(C)C)CC3)C(=O)N3CCCC(N3)C(=O)OCC(C)(C)C2)C1,IC50,second compound 0.000949 µM,0.0339 µM
same,IC50,second compound 0.003 µM,0.0388 µM
same,IC50,second compound 0.00949 µM,0.0394 µM
same,IC50,second compound 0.03 µM,0.0361 µM
same,IC50,second compound 0.0949 µM,0.0297 µM
same,IC50,second compound 0.3 µM,0.0271 µM
same,"viability, T/C","second compound 0.000949 µM, first compound 0.000316 µM",104%
same,"viability, T/C","second compound 0.000949 µM, first compound 0.001 µM",103%
same,"viability, T/C","second compound 0.000949 µM, first compound 0.00316 µM",107%
same,"viability, T/C","second compound 0.000949 µM, first compound 0.01 µM",101%
same,"viability, T/C","second compound 0.000949 µM, first compound 0.0316 µM",53.1%
same,"viability, T/C","second compound 0.000949 µM, first compound 0.1 µM",2.22%
same,"viability, T/C","second compound 0.003 µM, first compound 0.000316 µM",105%
same,"viability, T/C","second compound 0.003 µM, first compound 0.001 µM",107%
same,"viability, T/C","second compound 0.003 µM, first compound 0.00316 µM",105%
same,"viability, T/C","second compound 0.003 µM, first compound 0.01 µM",98.5%
same,"viability, T/C","second compound 0.003 µM, first compound 0.0316 µM",60.3%
same,"viability, T/C","second compound 0.003 µM, first compound 0.1 µM",2.31%
same,"viability, T/C","second compound 0.00949 µM, first compound 0.000316 µM",101%
same,"viability, T/C","second compound 0.00949 µM, first compound 0.001 µM",105%
same,"viability, T/C","second compound 0.00949 µM, first compound 0.00316 µM",106%
same,"viability, T/C","second compound 0.00949 µM, first compound 0.01 µM",99.8%
same,"viability, T/C","second compound 0.00949 µM, first compound 0.0316 µM",61.4%
same,"viability, T/C","second compound 0.00949 µM, first compound 0.1 µM",1.89%
same,"viability, T/C","second compound 0.03 µM, first compound 0.000316 µM",97.8%
same,"viability, T/C","second compound 0.03 µM, first compound 0.001 µM",104%
same,"viability, T/C","second compound 0.03 µM, first compound 0.00316 µM",106%
same,"viability, T/C","second compound 0.03 µM, first compound 0.01 µM",100%
same,"viability, T/C","second compound 0.03 µM, first compound 0.0316 µM",56.2%
same,"viability, T/C","second compound 0.03 µM, first compound 0.1 µM",1.72%
same,"viability, T/C","second compound 0.0949 µM, first compound 0.000316 µM",98.7%
same,"viability, T/C","second compound 0.0949 µM, first compound 0.001 µM",108%
same,"viability, T/C","second compound 0.0949 µM, first compound 0.00316 µM",108%
same,"viability, T/C","second compound 0.0949 µM, first compound 0.01 µM",100%
same,"viability, T/C","second compound 0.0949 µM, first compound 0.0316 µM",47.2%
same,"viability, T/C","second compound 0.0949 µM, first compound 0.1 µM",1.3%
same,"viability, T/C","second compound 0.3 µM, first compound 0.000316 µM",102%
same,"viability, T/C","second compound 0.3 µM, first compound 0.001 µM",107%
same,"viability, T/C","second compound 0.3 µM, first compound 0.00316 µM",108%
same,"viability, T/C","second compound 0.3 µM, first compound 0.01 µM",99.5%
same,"viability, T/C","second compound 0.3 µM, first compound 0.0316 µM",42.4%
same,"viability, T/C","second compound 0.3 µM, first compound 0.1 µM",1.08%
CCC(CC)c1cc(NC2CCC(N)C2)n2nccc2n1 (centres undefined) + C#Cc1c(F)ccc2cc(O)cc(-c3ncc4c(N5CC6CCC(C5)N6)nc(OCC56CCCN5CC(F)C6)nc4c3F)c12,IC50,second compound 0.0316 µM,1.79 µM
same,IC50,second compound 0.1 µM,1.8 µM
same,IC50,second compound 0.316 µM,1.79 µM
same,IC50,second compound 1 µM,1.78 µM
same,IC50,second compound 3.16 µM,1.79 µM
same,IC50,second compound 10 µM,1.82 µM
same,"viability, T/C","second compound 0.0316 µM, first compound 0.0316 µM",95.1%
same,"viability, T/C","second compound 0.0316 µM, first compound 0.1 µM",95.2%
same,"viability, T/C","second compound 0.0316 µM, first compound 0.316 µM",101%
same,"viability, T/C","second compound 0.0316 µM, first compound 1 µM",109%
same,"viability, T/C","second compound 0.0316 µM, first compound 3.16 µM",1.07%
same,"viability, T/C","second compound 0.0316 µM, first compound 10 µM",0.31%
same,"viability, T/C","second compound 0.1 µM, first compound 0.0316 µM",97.2%
same,"viability, T/C","second compound 0.1 µM, first compound 0.1 µM",97.7%
same,"viability, T/C","second compound 0.1 µM, first compound 0.316 µM",99.7%
same,"viability, T/C","second compound 0.1 µM, first compound 1 µM",110%
same,"viability, T/C","second compound 0.1 µM, first compound 3.16 µM",1.11%
same,"viability, T/C","second compound 0.1 µM, first compound 10 µM",0.27%
same,"viability, T/C","second compound 0.316 µM, first compound 0.0316 µM",95.4%
same,"viability, T/C","second compound 0.316 µM, first compound 0.1 µM",98.1%
same,"viability, T/C","second compound 0.316 µM, first compound 0.316 µM",97.6%
same,"viability, T/C","second compound 0.316 µM, first compound 1 µM",113%
same,"viability, T/C","second compound 0.316 µM, first compound 3.16 µM",0.58%
same,"viability, T/C","second compound 0.316 µM, first compound 10 µM",0.23%
same,"viability, T/C","second compound 1 µM, first compound 0.0316 µM",93.8%
same,"viability, T/C","second compound 1 µM, first compound 0.1 µM",95.7%
same,"viability, T/C","second compound 1 µM, first compound 0.316 µM",99.7%
same,"viability, T/C","second compound 1 µM, first compound 1 µM",111%
same,"viability, T/C","second compound 1 µM, first compound 3.16 µM",0.22%
same,"viability, T/C","second compound 1 µM, first compound 10 µM",0.66%
same,"viability, T/C","second compound 3.16 µM, first compound 0.0316 µM",94.1%
same,"viability, T/C","second compound 3.16 µM, first compound 0.1 µM",98%
same,"viability, T/C","second compound 3.16 µM, first compound 0.316 µM",96.4%
same,"viability, T/C","second compound 3.16 µM, first compound 1 µM",113%
same,"viability, T/C","second compound 3.16 µM, first compound 3.16 µM",1.09%
same,"viability, T/C","second compound 3.16 µM, first compound 10 µM",0.81%
same,"viability, T/C","second compound 10 µM, first compound 0.0316 µM",102%
same,"viability, T/C","second compound 10 µM, first compound 0.1 µM",101%
same,"viability, T/C","second compound 10 µM, first compound 0.316 µM",99.1%
same,"viability, T/C","second compound 10 µM, first compound 1 µM",111%
same,"viability, T/C","second compound 10 µM, first compound 3.16 µM",0.7%
same,"viability, T/C","second compound 10 µM, first compound 10 µM",0.12%
